US6737383B1, “Herbicidal oxadiazolidines” (priority 1999, dated 2004)

Tests used:
wild oat = assay: Test B pre/postemergence wild oat; assay type: in vivo, Avena fatua
How it was run: (§1)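 Test chemicals in a non-phytotoxic solvent mixture with surfactant were sprayed preemergence onto planted seeds and postemergence onto plants 2 to 18 cm tall (1- to 4-leaf stage). After twelve to sixteen days in a greenhouse, injury was visually rated against untreated controls from 0 (no effect) to 10 (complete control).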

giant foxtail = assay: Test B pre/postemergence giant foxtail; assay type: in vivo, Setaria faberii
How it was run: as §1

morningglory = assay: Test B pre/postemergence morningglory; assay type: in vivo, Ipomoea hederacea
How it was run: as §1

purple nutsedge = assay: Test B pre/postemergence purple nutsedge; assay type: in vivo, Cyperus rotundus
How it was run: as §1

rape = assay: Test B pre/postemergence rape; assay type: in vivo, Brassica napus
How it was run: as §1

surinam grass = assay: Test B pre/postemergence surinam grass; assay type: in vivo, Brachiaria decumbens
How it was run: as §1

cocklebur = assay: Test B pre/postemergence cocklebur; assay type: in vivo, Xanthium strumarium
How it was run: as §1

corn = assay: Test B pre/postemergence corn; assay type: in vivo, Zea mays
How it was run: as §1

wheat = assay: Test B pre/postemergence wheat; assay type: in vivo, Triticum aestivum
How it was run: as §1

sugar beet = assay: Test B pre/postemergence sugar beet; assay type: in vivo, Beta vulgaris
How it was run: as §1

crabgrass = assay: Test B pre/postemergence crabgrass; assay type: in vivo, Digitaria sanguinalis
How it was run: as §1

pigweed = assay: Test B pre/postemergence pigweed; assay type: in vivo, Amaranthus retroflexus
How it was run: as §1

duck salad = assay: Test B flood test duck salad; assay type: in vivo, Heteranthera limosa; conditions: Rate 125 g/ha; Postemergence section (flood test species); scale 0 to 10, 0 no effect, 10 complete control
How it was run: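 Flood test on plants grown to the 2-leaf stage; treated plants kept in greenhouse twelve to sixteen days, then visually rated against controls on a 0 (no effect) to 10 (complete control) scale.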

[1] = Postemergence, Rate 62 g/ha, scale 0 to 10, 0 is no effect, 10 is complete control
[2] = Postemergence, Rate 250 g/ha, scale 0 to 10, 0 no effect, 10 complete control
[3] = Preemergence, Rate 125 g/ha, scale 0 to 10 (0 no effect, 10 complete control)
[4] = Preemergence, Rate 250 g/ha, scale of 0 to 10 where 0 is no effect and 10 is complete control
[5] = Preemergence, Rate 500 g/ha, scale 0 (no effect) to 10 (complete control)
[6] = Rate 125 g/ha, Postemergence, scale 0 to 10, 0 no effect, 10 complete control
[7] = Preemergence, Rate 62 g/ha, scale 0 to 10, 0 is no effect, 10 is complete control
[8] = Rate 500 g/ha, Postemergence, 0 to 10 scale (0 no effect, 10 complete control)

In the case of `Cc1ccc(N(C(=O)n2oc(=O)n(-c3ccccc3C)c2=O)C(C)C)cc1` [Compound 40], the “Wild oats plant response rating” value (wild oat; [1]) was 0, the “Wild oats plant response rating” value (wild oat; [2]) was 0 and the “Plant response rating, Wild oats” value (wild oat; [3]) was 0. For the same molecule, the “Plant response rating, Wild oats” value (wild oat; [4]) was 0, the “Wild oats plant response rating” value (wild oat; [5]) was 5 and the “Wild oats plant response rating” value (wild oat; [6]) was 0. For the same molecule, the “Giant foxtail plant response rating” value (giant foxtail; [1]) was 0, the “Giant foxtail plant response rating” value (giant foxtail; [2]) was 1 and the “Plant response rating, Giant foxtail” value (giant foxtail; [7]) was 9. The “Plant response rating, Giant foxtail” value (giant foxtail; [3]) was 9, the “Plant response rating, Giant foxtail” value (giant foxtail; [4]) was 10 and the “Giant foxtail plant response rating” value (giant foxtail; [5]) was 10. The “Giant foxtail plant response rating” value (giant foxtail; [6]) was 0, the “Giant foxtail plant response rating” value (giant foxtail; [8]) was 3 and the “Morningglory plant response rating” value (morningglory; [1]) was 3. For the same molecule, the “Morningglory plant response rating” value (morningglory; [2]) was 6, the “Plant response rating, Morningglory” value (morningglory; [7]) was 0 and the “Plant response rating, Morningglory” value (morningglory; [3]) was 0. For the same molecule, the “Plant response rating, Morningglory” value (morningglory; [4]) was 0, the “Morningglory plant response rating” value (morningglory; [5]) was 0 and the “Morningglory plant response rating” value (morningglory; [6]) was 6. The “Morningglory plant response rating” value (morningglory; [8]) was 7, the “Nutsedge plant response rating” value (purple nutsedge; [1]) was 0 and the “Nutsedge plant response rating” value (purple nutsedge; [2]) was 0. For the same molecule, the “Plant response rating, Nutsedge” value (purple nutsedge; [7]) was 0, the “Plant response rating, Nutsedge” value (purple nutsedge; [3]) was 0 and the “Plant response rating, Nutsedge” value (purple nutsedge; [4]) was 0. For the same molecule, the “Nutsedge plant response rating” value (purple nutsedge; [5]) was 0, the “Nutsedge plant response rating” value (purple nutsedge; [6]) was 0 and the “Nutsedge plant response rating” value (purple nutsedge; [8]) was 0. For the same molecule, the “Rape plant response rating” value (rape; [1]) was 0, the “Rape plant response rating” value (rape; [2]) was 0 and the “Plant response rating, Rape” value (rape; [7]) was 0. The “Plant response rating, Rape” value (rape; [3]) was 0, the “Plant response rating, Rape” value (rape; [4]) was 0 and the “Rape plant response rating” value (rape; [5]) was 0. The “Rape plant response rating” value (rape; [6]) was 0, the “Rape plant response rating” value (rape; [8]) was 0 and the “B. signalgrass plant response rating” value (surinam grass; [1]) was 0. The “B. signalgrass plant response rating” value (surinam grass; [2]) was 0, the “Plant response rating, B. signalgrass” value (surinam grass; [7]) was 0 and the “Plant response rating, B. signalgrass” value (surinam grass; [3]) was 0. The “Plant response rating, B. signalgrass” value (surinam grass; [4]) was 5, the “B. signalgrass plant response rating” value (surinam grass; [5]) was 7 and the “B. signalgrass plant response rating” value (surinam grass; [6]) was 0. For the same molecule, the “B. signalgrass plant response rating” value (surinam grass; [8]) was 0, the “Cocklebur plant response rating” value (cocklebur; [1]) was 0 and the “Cocklebur plant response rating” value (cocklebur; [2]) was 0. For the same molecule, the “Plant response rating, Cocklebur” value (cocklebur; [7]) was 0, the “Plant response rating, Cocklebur” value (cocklebur; [3]) was 0 and the “Plant response rating, Cocklebur” value (cocklebur; [4]) was 0. The “Cocklebur plant response rating” value (cocklebur; [5]) was 0, the “Cocklebur plant response rating” value (cocklebur; [6]) was 0 and the “Cocklebur plant response rating” value (cocklebur; [8]) was 0. The “Corn plant response rating” value (corn; [1]) was 0, the “Corn plant response rating” value (corn; [2]) was 0 and the “Plant response rating, Corn” value (corn; [7]) was 0. For the same molecule, the “Plant response rating, Corn” value (corn; [3]) was 0, the “Plant response rating, Corn” value (corn; [4]) was 0 and the “Corn plant response rating” value (corn; [5]) was 0. For the same molecule, the “Corn plant response rating” value (corn; [6]) was 0, the “Corn plant response rating” value (corn; [8]) was 0 and the “Wheat plant response rating” value (wheat; [1]) was 0. The “Wheat plant response rating” value (wheat; [2]) was 0, the “Plant response rating, Wheat” value (wheat; [7]) was 0 and the “Plant response rating, Wheat” value (wheat; [3]) was 0. The “Plant response rating, Wheat” value (wheat; [4]) was 0, the “Wheat plant response rating” value (wheat; [5]) was 0 and the “Wheat plant response rating” value (wheat; [6]) was 0. For the same molecule, the “Sugarbeets plant response rating” value (sugar beet; [1]) was 0, the “Sugarbeets plant response rating” value (sugar beet; [2]) was 2 and the “Plant response rating, Sugarbeets” value (sugar beet; [7]) was 0. For the same molecule, the “Plant response rating, Sugarbeets” value (sugar beet; [3]) was 0, the “Plant response rating, Sugarbeets” value (sugar beet; [4]) was 0 and the “Sugarbeets plant response rating” value (sugar beet; [5]) was 6. For the same molecule, the “Sugarbeets plant response rating” value (sugar beet; [6]) was 0, the “Crabgrass plant response rating” value (crabgrass; [1]) was 0 and the “Crabgrass plant response rating” value (crabgrass; [2]) was 6. The “Plant response rating, Crabgrass” value (crabgrass; [7]) was 2, the “Plant response rating, Crabgrass” value (crabgrass; [3]) was 4 and the “Plant response rating, Crabgrass” value (crabgrass; [4]) was 7. For the same molecule, the “Crabgrass plant response rating” value (crabgrass; [5]) was 10, the “Crabgrass plant response rating” value (crabgrass; [6]) was 1 and the “Crabgrass plant response rating” value (crabgrass; [8]) was 7. For the same molecule, the “Redroot pigweed plant response rating” value (pigweed; [1]) was 0, the “Redroot pigweed plant response rating” value (pigweed; [2]) was 2 and the “Plant response rating, Redroot pigweed” value (pigweed; [7]) was 0. The “Plant response rating, Redroot pigweed” value (pigweed; [3]) was 1, the “Plant response rating, Redroot pigweed” value (pigweed; [4]) was 4 and the “Redroot pigweed plant response rating” value (pigweed; [5]) was 6. The “Redroot pigweed plant response rating” value (pigweed; [6]) was 1 and the “Ducksalad plant response rating” value (duck salad) was 0.
